Assay results from BindingDB's records for doi:10.1124/jpet.105.085217 (Imperial College, 2005).

Biological target: T1, Glucocorticoid receptor (Homo sapiens, UniProt P04150)
T1 sequence (P04150 whole entry): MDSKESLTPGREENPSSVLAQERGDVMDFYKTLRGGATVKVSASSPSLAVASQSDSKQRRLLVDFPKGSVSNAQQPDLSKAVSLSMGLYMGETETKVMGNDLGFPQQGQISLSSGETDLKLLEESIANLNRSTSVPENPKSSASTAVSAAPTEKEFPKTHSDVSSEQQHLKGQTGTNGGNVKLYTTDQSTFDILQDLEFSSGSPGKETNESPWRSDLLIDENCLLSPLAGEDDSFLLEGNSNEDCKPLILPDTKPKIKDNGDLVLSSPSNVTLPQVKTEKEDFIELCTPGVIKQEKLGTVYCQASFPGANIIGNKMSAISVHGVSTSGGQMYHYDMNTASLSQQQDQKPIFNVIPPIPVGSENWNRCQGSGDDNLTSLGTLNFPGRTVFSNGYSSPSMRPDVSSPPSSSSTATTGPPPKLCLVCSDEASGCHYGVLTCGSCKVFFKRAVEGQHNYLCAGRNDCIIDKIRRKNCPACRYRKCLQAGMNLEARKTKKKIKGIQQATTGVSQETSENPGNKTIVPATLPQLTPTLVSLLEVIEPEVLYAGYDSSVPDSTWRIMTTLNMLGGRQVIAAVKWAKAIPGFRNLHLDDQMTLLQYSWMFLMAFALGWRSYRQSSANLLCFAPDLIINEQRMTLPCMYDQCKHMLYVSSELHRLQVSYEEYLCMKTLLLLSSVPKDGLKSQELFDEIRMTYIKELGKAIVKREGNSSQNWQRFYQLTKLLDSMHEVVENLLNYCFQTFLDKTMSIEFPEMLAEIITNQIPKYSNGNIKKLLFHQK

Compound: C[C@]12C=CC(=O)C=C1CC[C@@H]1[C@@H]2[C@@H](O)C[C@@]2(C)[C@H]1C[C@H]1O[C@@H](C3CCCCC3)O[C@]12C(=O)CO [desisobutyryl-ciclesonide]
- Ki: 0.31 nM
